Assay results as given in US10800774B2, “Heterocyclic inhibitors of ATR kinase” (Board of Regents, The University of Texas System, priority 2017, dated 2020).

Key:
ATR/ATRIP complex = ATR/ATRIP complex (Homo sapiens (Human), UniProt Q13535); assay: ATR/ATRIP enzymatic assay (Caliper-based); format: biochemical; conditions: FAM-labeled RAD17 peptide, ATP; read-out: ATR/ATRIP Enzyme IC50
Protocol: Human full-length FLAG-TEV-ATR and His6-ATRIP were co-expressed in HEK293 cells. […] The sample was loaded into a column, and then washed with buffer A three times. Protein was subsequently eluted with 2 ml of buffer B (buffer A+200 μg/ml 3×FLAG peptide).
The ability of new chemical matter to inhibit the ATR catalytic activity in this ATR/ATRIP complex was assessed using a Caliper-based assay. A 2× enzyme solution (i.e., 4 nM enzyme) was prepared using 1× Kinase Reaction Buffer (25 mM HEPES pH 8, 0.0055% Brij-35, 10 mM MnCl2, and 1 mM DTT). […] 10 μL of the 2× enzyme solution was transferred to an assay plate containing 60 nL of test compound (from a 3× serial dilution) in 100% DMSO. Following a 30 minute incubation at 28° C., 10 μL of the 2× peptide solution was then transferred to the same assay plate. The reaction was allowed to incubate at 28° C. for 6 hours. After adding […] of stop buffer (100 mM HEPES pH 7.5, 0.015% Brij-35, 0.2% Coating-3 Reagent (PerkinElmer, catalog # PN760050), and 50 mM EDTA), data were collected on a Caliper instrument. Conversion values were converted to inhibition values via the following equation: % inhibition=(max−conversion)/(max−min)*100, whereby “max” corresponds to the DMSO control and “min” corresponds to the low control. IC50 values were calculated using the following equation in XLFit: Y=Bottom+(Top−Bottom)/1+(IC50/X)^HillSlope).

[1] = test system: ATR-driven phosphorylation of Chk1 kinase at Serine 345 in HT-29 cells; assay: pCHK1 cellular assay (CHK1 p-Ser345 AlphaScreen SureFire); conditions: Homo sapiens, HT-29, read-out: pCHK1 Cell IC50
Protocol: The microplate was incubated overnight (approximately 20 hours) at 37° C. with 5% CO2 and ambient 02. Stock solutions of the test compounds were prepared in 100% DMSO (Sigma, Catalog # D2650) and serially diluted 1:3 using 100% DMSO. Compounds were additionally diluted 1:33 in culture medium, and 10 ul/well were transferred to the tissue culture plate. Following the compound addition the microplate was incubated at 37° C. for 90 minutes. […] The cells were then washed with PBS and lysed using 10 uL/well […] ® Kit lysis buffer diluted to 1× in water (PerkinElmer Catalog # TGRCHK1S50K), with mixing on an orbital shaker at 500 rpm for 20 min at RT. Lysates were frozen at −20° C. overnight.
The pCHK1 ALPHASCREEN® signal was measured using an ENVISION® plate reader (PerkinElmer). IC50 values were calculated using a four-parameter logistic curve fit using Genedata Screener software. Percent of control for each compound concentration was calculated by the following formula: 100*(Compound-Min)/(Max-Min) where “Max” is the high control, DMSO, and “Min” is the low control, 5 uM ATR inhibitor.

ATR/ATRIP complex, sequence (Q13535 whole entry): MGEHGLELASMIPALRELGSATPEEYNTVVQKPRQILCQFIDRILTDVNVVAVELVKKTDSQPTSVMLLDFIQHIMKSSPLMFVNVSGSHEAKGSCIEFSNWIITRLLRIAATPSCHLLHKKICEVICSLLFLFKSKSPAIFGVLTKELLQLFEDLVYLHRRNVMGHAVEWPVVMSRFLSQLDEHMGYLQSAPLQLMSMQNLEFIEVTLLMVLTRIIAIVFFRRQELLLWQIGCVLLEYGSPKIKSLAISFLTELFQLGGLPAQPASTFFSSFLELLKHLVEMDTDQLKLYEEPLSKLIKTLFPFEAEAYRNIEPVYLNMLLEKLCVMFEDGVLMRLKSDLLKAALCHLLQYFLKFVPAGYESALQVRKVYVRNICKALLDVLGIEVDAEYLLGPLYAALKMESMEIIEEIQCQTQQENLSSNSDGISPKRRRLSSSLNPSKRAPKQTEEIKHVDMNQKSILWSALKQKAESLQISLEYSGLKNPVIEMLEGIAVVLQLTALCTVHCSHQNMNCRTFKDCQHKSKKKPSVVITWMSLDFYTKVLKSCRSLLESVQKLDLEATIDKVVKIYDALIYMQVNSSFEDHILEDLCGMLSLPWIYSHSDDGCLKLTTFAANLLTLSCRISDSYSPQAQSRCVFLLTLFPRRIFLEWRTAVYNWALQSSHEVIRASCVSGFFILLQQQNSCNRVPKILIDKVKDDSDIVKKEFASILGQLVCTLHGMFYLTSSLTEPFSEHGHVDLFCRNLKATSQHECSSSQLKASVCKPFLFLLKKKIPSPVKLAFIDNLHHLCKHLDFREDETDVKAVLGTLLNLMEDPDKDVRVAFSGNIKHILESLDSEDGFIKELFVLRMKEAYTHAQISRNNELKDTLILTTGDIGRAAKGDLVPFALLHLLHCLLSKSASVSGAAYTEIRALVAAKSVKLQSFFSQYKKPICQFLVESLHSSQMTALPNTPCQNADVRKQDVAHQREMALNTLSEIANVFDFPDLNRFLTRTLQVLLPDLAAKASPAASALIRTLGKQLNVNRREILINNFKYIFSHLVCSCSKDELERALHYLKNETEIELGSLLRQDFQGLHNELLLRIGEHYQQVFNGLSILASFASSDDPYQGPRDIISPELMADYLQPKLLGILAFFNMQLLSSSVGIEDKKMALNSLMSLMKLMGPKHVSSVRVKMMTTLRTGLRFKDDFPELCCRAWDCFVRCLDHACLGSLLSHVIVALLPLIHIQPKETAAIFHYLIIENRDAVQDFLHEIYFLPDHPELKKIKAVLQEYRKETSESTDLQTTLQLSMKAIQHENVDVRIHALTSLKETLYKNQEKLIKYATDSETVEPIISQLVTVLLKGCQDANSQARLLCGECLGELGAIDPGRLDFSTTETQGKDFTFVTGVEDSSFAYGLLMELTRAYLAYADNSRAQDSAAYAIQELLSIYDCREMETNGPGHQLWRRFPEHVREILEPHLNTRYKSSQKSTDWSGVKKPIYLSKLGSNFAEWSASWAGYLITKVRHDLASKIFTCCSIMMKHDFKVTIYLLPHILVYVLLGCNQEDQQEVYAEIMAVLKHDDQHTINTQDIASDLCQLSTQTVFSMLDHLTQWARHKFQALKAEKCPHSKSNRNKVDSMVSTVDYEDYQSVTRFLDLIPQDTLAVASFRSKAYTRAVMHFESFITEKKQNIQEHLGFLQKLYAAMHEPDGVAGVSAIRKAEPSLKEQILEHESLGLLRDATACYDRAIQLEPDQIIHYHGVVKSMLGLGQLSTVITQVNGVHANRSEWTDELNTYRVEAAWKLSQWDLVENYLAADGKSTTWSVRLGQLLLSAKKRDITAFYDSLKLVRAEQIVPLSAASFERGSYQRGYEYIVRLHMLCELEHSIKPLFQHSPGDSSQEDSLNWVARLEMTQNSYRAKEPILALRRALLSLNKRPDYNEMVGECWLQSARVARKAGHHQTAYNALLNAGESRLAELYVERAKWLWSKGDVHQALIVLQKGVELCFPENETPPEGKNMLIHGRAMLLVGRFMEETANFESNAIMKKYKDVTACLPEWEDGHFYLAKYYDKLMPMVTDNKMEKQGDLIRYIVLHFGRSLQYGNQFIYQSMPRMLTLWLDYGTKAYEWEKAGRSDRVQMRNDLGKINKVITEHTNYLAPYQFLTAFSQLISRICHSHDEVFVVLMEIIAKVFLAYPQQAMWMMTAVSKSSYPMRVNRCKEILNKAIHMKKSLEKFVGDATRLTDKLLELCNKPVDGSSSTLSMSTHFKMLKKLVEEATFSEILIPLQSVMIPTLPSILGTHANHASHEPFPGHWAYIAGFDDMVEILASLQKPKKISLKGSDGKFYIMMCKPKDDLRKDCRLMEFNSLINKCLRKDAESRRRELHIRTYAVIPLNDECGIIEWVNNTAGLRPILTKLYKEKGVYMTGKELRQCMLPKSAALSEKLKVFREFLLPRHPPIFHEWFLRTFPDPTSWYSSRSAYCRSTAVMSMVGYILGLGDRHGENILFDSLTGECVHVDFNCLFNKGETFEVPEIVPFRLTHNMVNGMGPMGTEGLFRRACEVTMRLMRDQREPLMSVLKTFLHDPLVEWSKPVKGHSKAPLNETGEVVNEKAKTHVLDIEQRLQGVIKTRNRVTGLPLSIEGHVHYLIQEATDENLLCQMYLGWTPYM
ATR/ATRIP complex, sequence (Q8WXE1 whole entry partner): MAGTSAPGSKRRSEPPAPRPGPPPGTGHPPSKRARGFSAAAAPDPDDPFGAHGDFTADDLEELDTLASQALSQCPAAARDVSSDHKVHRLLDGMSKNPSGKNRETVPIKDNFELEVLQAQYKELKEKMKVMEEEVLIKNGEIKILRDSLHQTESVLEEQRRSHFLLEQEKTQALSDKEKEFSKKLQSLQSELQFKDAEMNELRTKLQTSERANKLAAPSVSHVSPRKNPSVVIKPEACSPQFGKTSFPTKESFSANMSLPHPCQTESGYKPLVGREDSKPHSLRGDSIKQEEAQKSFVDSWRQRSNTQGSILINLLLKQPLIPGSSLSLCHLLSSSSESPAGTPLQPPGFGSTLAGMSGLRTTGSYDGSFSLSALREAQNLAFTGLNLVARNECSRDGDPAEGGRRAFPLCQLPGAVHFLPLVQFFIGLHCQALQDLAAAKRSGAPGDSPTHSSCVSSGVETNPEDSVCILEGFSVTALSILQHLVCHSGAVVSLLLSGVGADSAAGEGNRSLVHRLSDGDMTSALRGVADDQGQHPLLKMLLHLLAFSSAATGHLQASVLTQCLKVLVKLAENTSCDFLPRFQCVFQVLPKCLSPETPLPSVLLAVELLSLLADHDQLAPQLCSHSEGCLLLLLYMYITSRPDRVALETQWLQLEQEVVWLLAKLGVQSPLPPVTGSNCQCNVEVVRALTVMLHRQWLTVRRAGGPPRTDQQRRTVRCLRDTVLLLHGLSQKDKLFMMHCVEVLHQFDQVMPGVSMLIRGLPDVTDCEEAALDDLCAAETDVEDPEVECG

With `C[C@@H]1COCCN1c1cc(C2CCN(C(=O)CC3CC3)CC2)nc(-c2ccnc3[nH]ccc23)n1` [Example 25, 2-Cyclopropyl-1-(4-{6-[(3R)-3-methylmorpholin-4-yl]-2-{1H-pyrrolo[2,3-b]pyridin-4-yl}pyrimidin-4-yl}piperidin-1-yl) ethan-1-one] the IC50 (ATR/ATRIP complex) was 16 nM and the IC50 [1] was 139 nM.

In the case of `C[C@@H]1COCCN1c1cc(C2CCCCS2(=O)=O)nc(-c2ccnc3[nH]ccc23)n1` (stereo partly drawn) [Example 26, 2-{6-[(3R)-3-Methyl-morpholin-4-yl]-2-{1H-pyrrolo[2,3-b]pyridin-4-yl}pyrimidin-4-yl}-1λ^6-thiane-1,1-dione], the IC50 (ATR/ATRIP complex) is reported as 8 nM and the IC50 [1] is reported as 86 nM.

With `CC(C)OC(=O)N1CCC(c2cc(N3CCOC[C@H]3C)nc(-c3ccnc4[nH]ccc34)n2)CC1` [Example 27, Propan-2-yl 4-{6-[(3R)-3-methylmorpholin-4-yl]-2-{1H-pyrrolo[2,3-b]pyridin-4-yl}pyrimidin-4-yl}piperidine-1-carboxylate] the IC50 (ATR/ATRIP complex) was 15 nM and the IC50 [1] was 405 nM.

For `C[C@@H]1COCCN1c1cc(C2CCN(C(=O)OCC3CC3)CC2)nc(-c2ccnc3[nH]ccc23)n1` [Example 28, Cyclopropylmethyl 4-{6-[(3R)-3-methylmorpholin-4-yl]-2-{1H-pyrrolo[2,3-b]-pyridin-4-yl}pyrimidin-4-yl}piperidine-1-carboxylate], the IC50 (ATR/ATRIP complex) was 17 nM and the IC50 [1] was 270 nM.

With `C[C@@H]1COCCN1c1cc(C2(C)CCCS2(=O)=O)nc(-c2ccnc3[nH]ccc23)n1` (stereo partly drawn) [Example 29, 2-Methyl-2-(6-((R)-3-methylmorpholino)-2-(1H-pyrrolo[2,3-b]pyridin-4-yl)pyrimidin-4-yl)tetrahydrothiophene 1,1-dioxide] the IC50 (ATR/ATRIP complex) was 8 nM and the IC50 [1] was 89 nM.

`C[C@@H]1COCCN1c1cc([C@]2(C)CCCS2(=O)=O)nc(-c2ccnc3[nH]ccc23)n1` [Example 30a, (S)-2-methyl-2-(6-((R)-3-methylmorpholino)-2-(1H-pyrrolo[2,3-b]pyridin-4-yl)pyrimidin-4-yl)tetrahydrothiophene 1,1-dioxide] was tested, and the IC50 (ATR/ATRIP complex) was 6 nM and the IC50 [1] was 76 nM.

Compound `C[C@@H]1COCCN1c1cc([C@@]2(C)CCCS2(=O)=O)nc(-c2ccnc3[nH]ccc23)n1` [Example 30b, (R)-2-methyl-2-(6-((R)-3-methylmorpholino)-2-(1H-pyrrolo[2,3-b]pyridin-4-yl)pyrimidin-4-yl)tetrahydrothiophene 1,1-dioxide] has an IC50 (ATR/ATRIP complex) of 6 nM and an IC50 [1] of 106 nM.
